Data reported in publication PMC4446596, “Functional Diversity of Anti-Lipopolysaccharide Factor Isoforms in Shrimp and Their Characters Related to Antiviral Activity” (Marine Drugs, 2015).
Where a SMILES comes first, the peptide text is derived from it.

Key:
[1] = test system: WSSV; assay: Antiviral activity detection: WSSV pre-incubated with peptide injected into E. carinicauda, in vivo WSSV copy number; design: species or system Exopalaemon carinicauda; settings: E. carinicauda pleopods, 24 h post injection; WSSV (10^3 copies/μL) pre-incubated 2 h at room temperature with 50 μM peptide, 10 μL injected; VP28 real-time PCR; n = 15; WSSV group 1.21 × 10^5, blank 1.31 × 10^3
Description: Exopalaemon carinicauda is being regarded as a good crustacean model animal for WSSV infection experiments. In this study, healthy E. carinicauda with a body length of 5.43 ± 0.30 cm and a body weight of 2.62 ± 0.42 g were used as experimental animals for WSSV infection assay. Animals were acclimatized in the aerated seawater at 25 °C for 1 day before experiments.
In order to learn the effect of synthetic LBD peptides on WSSV infection, WSSV pre-incubated with different peptides was injected into E. carinicauda and the WSSV copy number in the pleopods of E. carinicauda was detected. E. carinicauda was classified into 13 groups and each group contained 18 to 20 individuals. The 13 groups were named as Blank, WSSV, pGFP, LBD1, LBD2, LBD3, LBD4, LBD5, LBD6, LBD7, sLBD2, LBD2-K and LBD4+K, respectively. Synthetic peptides were diluted into 50 μM with PBS (pH 7.4). WSSV was incubated with each peptide solution for 2 h at room temperature with a final concentration 10^3 copies/μL. […] For WSSV group, each shrimp was injected with 10 μL WSSV incubated with PBS (pH 7.4) for 2 h at room temperature. For the other groups (LBD1–LBD7, sLBD2, LBD2-K and LBD4+K), each shrimp was injected with 10 μL of WSSV solution after incubation with corresponding synthetic peptides, respectively. At 24 h post injection (hpi), the pleopods of 15 shrimps in each group were collected and the pleopods from three individuals were put together as one sample. Total DNA of each sample was extracted using the Genomic DNA Kit (Tiangen, China). The viral copy number was measured by detecting the level of VP28 using real-time PCR as described previously.

[2] = test system: M. luteus; assay: Inhibition zone test; format: cell-based, Micrococcus luteus; settings: 20 μL of 64 μM peptide in PBS pH 7.4 on 6 mm filter paper, solid LB plate, 37 °C, 24 h
Description: (§1) Gram-negative bacteria, including Escherichia coli and Aeromonas hydrophila, and Gram-positive bacteria, including Micrococcus luteus and Bacillus simplex were used for antibacterial analyses. The strains were incubated in fresh LB medium overnight at 37 °C for E. coli, M. luteus and 28 °C for A. hydrophila, B. simplex.
(§2) The antibacterial activities of LBD peptides were examined by inhibition zone test. The overnight cultures of bacteria were diluted 100 times and cultured in LB medium at 37 °C (E. coli and M. luteus) or 28 °C (A. hydrophila and B. simplex) for 6 h. These cultures were then diluted 100 times with LB medium separately, and 200 μL solutions from each diluted cultures was taken out and spread on the solid LB medium plate uniformly. Sterile filter paper with a diameter of 6 mm was put on the surface of solid LB medium gently. Twenty microliters of 64 μM peptide solution dissolved in PBS (pH 7.4) was added to the center of filter paper with a diameter of 6 mm. Twenty microliters PBS and 20 μL of 64 μM pGFP peptide were used as negative controls. […] ampicillin solutions was used as the positive control for E. coli, M. luteus and B. simplex culture, and 50 μM kanamycin sulfates was used as the positive control for A. hydrophila culture. The plates were cultured at 37 °C (E. coli and M. luteus) or 28 °C (A. hydrophila and B. simplex) for 24 h.

[3] = test system: E. coli; assay: Inhibition zone test; format: cell-based, Escherichia coli; settings: 20 μL of 64 μM peptide in PBS pH 7.4 on 6 mm filter paper, solid LB plate, 37 °C, 24 h
Description: as §1, §2

[4] = test system: A. hydrophila; assay: Inhibition zone test; format: cell-based, Aeromonas hydrophila; settings: 20 μL of 64 μM peptide in PBS pH 7.4 on 6 mm filter paper, solid LB plate, 28 °C, 24 h
Description: as §1, §2

Molecule | WSSV copy number [1] | Inhibition zone [2] | Inhibition zone [3] | Inhibition zone [4]
CSCC[C@@H]1NC(=O)[C@H](CCCNC(=N)N)NC(=O)CNC(=O)[C@H](CCCCN)NC(=O)[C@H](Cc2ccccc2)NC(=O)[C@H](Cc2ccc(O)cc2)NC(=O)[C@H](CC(C)C)NC(=O)[C@H](CCC(=O)O)NC(=O)[C@H](Cc2ccccc2)NC(=O)[C@H](CO)NC(=O)[C@H](CCCCN)NC(=O)[C@H](C(C)C)NC(=O)[C@H]([C@@H](C)O)NC(=O)[C@@H]2CCCN2C(=O)[C@H]([C@@H](C)O)NC(=O)[C@H](C(C)C)NC(=O)[C@H](CO)NC(=O)[C@H](Cc2ccc(O)cc2)NC(=O)[C@H]([C@@H](C)O)NC(=O)[C@@H](NC(=O)[C@H](CCC(N)=O)NC(C)=O)CSSC[C@@H](C(=O)N2CCC[C@H]2C(N)=O)NC(=O)[C@H](CO)NC1=O [LBD1] (HELM PEPTIDE1{[ac].Q.C.T.Y.S.V.T.P.T.V.K.S.F.E.L.Y.F.K.G.R.M.S.C.P.[am]}$PEPTIDE1,PEPTIDE1,3:R3-24:R3$$$V2.0) | 4.36 × 10^3 copies/ng DNA | Obvious inhibition zones | apparent inhibition zones | –
CSCC[C@@H]1NC(=O)[C@H](CCCNC(=N)N)NC(=O)CNC(=O)[C@H](CCCNC(=N)N)NC(=O)[C@H](Cc2ccccc2)NC(=O)[C@H](Cc2ccc(O)cc2)NC(=O)[C@H](CC(C)C)NC(=O)[C@H](CCC(N)=O)NC(=O)[C@H](Cc2c[nH]c3ccccc23)NC(=O)[C@H](CCCNC(=N)N)NC(=O)[C@H](CCCCN)NC(=O)[C@H](Cc2ccccc2)NC(=O)[C@H](CCCCN)NC(=O)[C@@H]2CCCN2C(=O)[C@H]([C@@H](C)O)NC(=O)[C@H](C(C)C)NC(=O)[C@H](CC(N)=O)NC(=O)[C@H](Cc2ccccc2)NC(=O)[C@H](CO)NC(=O)[C@@H](NC(=O)[C@H](Cc2ccc(O)cc2)NC(C)=O)CSSC[C@@H](C(=O)N2CCC[C@H]2C(N)=O)NC(=O)[C@H](Cc2c[nH]c3ccccc23)NC1=O [LBD2] (HELM PEPTIDE1{[ac].Y.C.S.F.N.V.T.P.K.F.K.R.W.Q.L.Y.F.R.G.R.M.W.C.P.[am]}$PEPTIDE1,PEPTIDE1,3:R3-24:R3$$$V2.0) | 1.40 × 10^3 copies/ng DNA | Obvious inhibition zones | – | exhibited inhibition zones
CC[C@H](C)[C@@H]1NC(=O)[C@H](Cc2ccccc2)NC(=O)[C@H](Cc2ccc(O)cc2)NC(=O)[C@H](CC(C)C)NC(=O)[C@H](CCC(N)=O)NC(=O)[C@H](Cc2c[nH]c3ccccc23)NC(=O)[C@H](CCCNC(=N)N)NC(=O)[C@H](CCC(N)=O)NC(=O)[C@H](Cc2ccccc2)NC(=O)[C@H]([C@@H](C)O)NC(=O)[C@@H]2CCCN2C(=O)[C@H](CCCCN)NC(=O)[C@H](C(C)C)NC(=O)[C@H](CO)NC(=O)[C@H](Cc2ccc(O)cc2)NC(=O)[C@H](C(C)C)NC(=O)[C@@H](NC(=O)[C@H](Cc2ccc(O)cc2)NC(C)=O)CSSC[C@@H](C(=O)N2CCC[C@H]2C(N)=O)NC(=O)[C@H](Cc2c[nH]c3ccccc23)NC(=O)[C@H](CCSC)NC(=O)[C@H](CO)NC(=O)CNC1=O [LBD3] (HELM PEPTIDE1{[ac].Y.C.V.Y.S.V.K.P.T.F.Q.R.W.Q.L.Y.F.I.G.S.M.W.C.P.[am]}$PEPTIDE1,PEPTIDE1,3:R3-24:R3$$$V2.0) | 1.19 × 10^5 copies/ng DNA | Obvious inhibition zones | – | –
CSCC[C@@H]1NC(=O)[C@H](CCCNC(=N)N)NC(=O)CNC(=O)[C@H](CC(N)=O)NC(=O)[C@H](Cc2ccccc2)NC(=O)[C@H](Cc2ccc(O)cc2)NC(=O)[C@H](CC(C)C)NC(=O)[C@H](CCC(=O)O)NC(=O)[C@H](Cc2c[nH]c3ccccc23)NC(=O)[C@H](CCCNC(=N)N)NC(=O)[C@H](Cc2ccc(O)cc2)NC(=O)[C@H](Cc2ccccc2)NC(=O)[C@H](CO)NC(=O)[C@@H]2CCCN2C(=O)[C@H](CCCNC(=N)N)NC(=O)[C@H](CCC(N)=O)NC(=O)[C@H](CO)NC(=O)[C@H](Cc2ccc(O)cc2)NC(=O)[C@H](CCCNC(=N)N)NC(=O)[C@@H](NC(=O)[C@H](CO)NC(C)=O)CSSC[C@@H](C(=O)N2CCC[C@H]2C(N)=O)NC(=O)[C@H](Cc2c[nH]c3ccccc23)NC1=O [LBD4] (HELM PEPTIDE1{[ac].S.C.R.Y.S.Q.R.P.S.F.Y.R.W.E.L.Y.F.N.G.R.M.W.C.P.[am]}$PEPTIDE1,PEPTIDE1,3:R3-24:R3$$$V2.0) | 7.24 × 10^4 copies/ng DNA | – | apparent inhibition zones | –
CC(=O)N[C@@H](Cc1ccc(O)cc1)C(=O)N[C@H]1CSSC[C@@H](C(=O)N2CCC[C@H]2C(N)=O)NC(=O)[C@H](CCCCN)NC(=O)[C@H](CC(C)C)NC(=O)[C@H](CCC(=O)O)NC(=O)[C@H](C)NC(=O)[C@H](CCCNC(=N)N)NC(=O)[C@H](Cc2ccc(O)cc2)NC(=O)[C@H](Cc2c[nH]cn2)NC(=O)[C@H](C(C)C)NC(=O)[C@H](CCC(=O)O)NC(=O)[C@H](CC(C)C)NC(=O)[C@H](CCCCN)NC(=O)[C@H](CCCCN)NC(=O)[C@H](CC(C)C)NC(=O)[C@H](Cc2ccc(O)cc2)NC(=O)[C@@H]2CCCN2C(=O)[C@H](CO)NC(=O)[C@H](CCCNC(=N)N)NC(=O)[C@H](CO)NC(=O)[C@H](CC(C)C)NC(=O)[C@H](CC(C)C)NC1=O [LBD5] (HELM PEPTIDE1{[ac].Y.C.L.L.S.R.S.P.Y.L.K.K.L.E.V.H.Y.R.A.E.L.K.C.P.[am]}$PEPTIDE1,PEPTIDE1,3:R3-24:R3$$$V2.0) | 2.07 × 10^3 copies/ng DNA | – | – | –
CC[C@H](C)[C@@H]1NC(=O)[C@H](Cc2ccccc2)NC(=O)[C@H](Cc2ccc(O)cc2)NC(=O)[C@H](CC(C)C)NC(=O)[C@H](CCC(=O)O)NC(=O)[C@H](Cc2ccccc2)NC(=O)CNC(=O)[C@H](CCC(N)=O)NC(=O)[C@H]([C@@H](C)CC)NC(=O)[C@H](CC(=O)O)NC(=O)[C@@H]2CCCN2C(=O)[C@H](CCCCN)NC(=O)[C@H](C(C)C)NC(=O)[C@H](CO)NC(=O)[C@H](Cc2ccc(O)cc2)NC(=O)[C@H](CO)NC(=O)[C@@H](NC(=O)[C@H](CO)NC(C)=O)CSSC[C@@H](C(=O)N2CCC[C@H]2C(N)=O)NC(=O)[C@H]([C@@H](C)O)NC(=O)[C@H](C(C)C)NC(=O)[C@H](CO)NC(=O)CNC1=O [LBD6] (HELM PEPTIDE1{[ac].S.C.S.Y.S.V.K.P.D.I.Q.G.F.E.L.Y.F.I.G.S.V.T.C.P.[am]}$PEPTIDE1,PEPTIDE1,3:R3-24:R3$$$V2.0) | 1.55 × 10^5 copies/ng DNA | – | apparent inhibition zones | –
CC[C@H](C)[C@@H]1NC(=O)[C@H](Cc2ccc(O)cc2)NC(=O)[C@@H]2CCCN2C(=O)[C@H](CCCCN)NC(=O)[C@H](C(C)C)NC(=O)[C@H]([C@@H](C)O)NC(=O)[C@H](Cc2ccccc2)NC(=O)[C@H](CCCCN)NC(=O)[C@@H](NC(=O)[C@H](CCC(=O)O)NC(C)=O)CSSC[C@@H](C(=O)N2CCC[C@H]2C(N)=O)NC(=O)[C@H](Cc2c[nH]c3ccccc23)NC(=O)[C@H](CCSC)NC(=O)[C@H](CCCNC(=N)N)NC(=O)CNC(=O)[C@H](CCCCN)NC(=O)[C@H](Cc2ccc(O)cc2)NC(=O)[C@H](Cc2ccc(O)cc2)NC(=O)[C@H](CC(C)C)NC(=O)[C@H](CCC(N)=O)NC(=O)[C@H](Cc2ccccc2)NC(=O)[C@H](CCCNC(=N)N)NC(=O)[C@H](CCCCN)NC1=O [LBD7] (HELM PEPTIDE1{[ac].E.C.K.F.T.V.K.P.Y.I.K.R.F.Q.L.Y.Y.K.G.R.M.W.C.P.[am]}$PEPTIDE1,PEPTIDE1,3:R3-24:R3$$$V2.0) | 5.07 × 10^3 copies/ng DNA | – | apparent inhibition zones | exhibited inhibition zones
Ac-FKRWQLYFRG-NH2 [sLBD2, a part (ten amino acid residues) of LBD] | 4.04 × 10^3 copies/ng DNA | – | – | –
Ac-S(CRYSQRPSFKRWELYFNGRMWC)P-NH2 (disulfide) [LBD4+K, same as LBD4 except for the replacement of a tyrosine residue by a lysine residue] | 3.40 × 10^3 copies/ng DNA | – | – | –
Ac-Y(CSFNVTPKFQRWQLYFRGRMWC)P-NH2 (disulfide) [LBD2-K, same as LBD2 except for the replacement of a lysine residue by a glutamine residue] | 5.14 × 10^4 copies/ng DNA | – | – | –
